Measurements as given in patent publication US20190282616A1, “MACROPHAGES REDIRECT PHAGOCYTOSIS BY NON-PROFESSIONAL PHAGOCYTES AND INFLUENCE INFLAMMATION” (University of Virginia Patent Foundation, priority 2016, published 2019).

Legend:
[1] = system: alveolar macrophages; assay: In vivo engulfment assay: alveolar macrophages; design: species or system mouse; conditions: same IGF-1 treated mice
Procedure: CCSP-Cre/YFP mice were administered PBS or 1 μg of IGF-1 intranasally. One hour later, 100 million CypHer5E-labelled apoptotic thymocytes with or without IGF-I were injected intranasally for 3.5 hours. The BAL fluid was harvested and the lungs excised, minced, and digested into a single cell suspension. The cells were then stained with appropriate markers: CD11c and Siglec F for alveolar macrophage markers and EpCam (along with YFP expression) for airway epithelial cells and analyzed by flow cytometry to assess apoptotic cell uptake by the airway epithelial cells and the alveolar macrophages.

[2] = system: IGF-1R and Akt phosphorylation in macrophages; assay: Immunoblotting of IGF-1R and Akt phosphorylation in macrophages; type: cell-based; conditions: 100 ng/mL mouse IGF-1
Procedure: LR73, J774, or BEAS-2B cells were seeded in a 60 mm dish at a concentration of 5×10^5. Cells were serum-starved for 6 hours and then stimulated with 100 ng/mL of IGF-1 for various time points. Cells were lysed in RIPA buffer and used in Western blots. The blots were probed for phospho-Erk1/2 (Cell Signaling Technology, #4370), phospho-Akt (Cell Signaling Technology, #4060), phospho-IGF-1R (Cell Signaling, #3024), total Erk2 (Santa Cruz Biotechnology, #sc-154-G), total Akt (Cell Signaling Technology, #4691), total IGF-1R (Cell Signaling, #9750), and anti-B-actin-HRP (Sigma-Aldrich, #A3854) followed by chemiluminescence detection.

[3] = system: SVEC-40 endothelial cells; assay: In vitro engulfment assay: apoptotic thymocyte uptake by SVEC-40 cells; type: cell-based, mouse; conditions: IGF-1 treatment
Procedure: LR73, SVEC-40, BEAS-2B, and 16HBE14o-cells were seeded in a 24 well plate. Thymocytes were isolated from 4-6 week old mice and induced to undergo apoptosis with dexamethasone. Thymocytes or prepared microvesicles were then stained with either CypHer5E (GE Healthcare, PA15401) or TAMRA (Invitrogen, C-1171). LR73 and SVEC-40 cells were incubated with apoptotic thymocytes at a 1:10 phagocyte to target ratio, BEAS-2B at a 1:5 phagocyte to target ratio, and 16HBE14o—at a 1:20 phagocyte to target ratio for 2 hours. Mouse IGF-I (Sigma-Aldrich), human IGF-I (Sigma-Aldrich), human IGF-II (Sigma-Aldrich) were added to the phagocytes at the same time as addition of apoptotic targets. For IGFBP3 studies, IGFBP3 (Sigma-Aldrich) was added to media or supernatant from J774 cells for one hour to allow IGFBP3 to bind to any available IGF-I, then the mix is added to phagocytes along with apoptotic targets. […] Targets were then washed off three times with PBS, and the cells were dissociated from the plate with trypsin and the engulfment assessed by flow cytometry.

[4] = system: resident peritoneal macrophages; assay: Liposome uptake by resident peritoneal macrophages; type: cell-based, mouse; conditions: exposed to IGF-1 vs control
Procedure: (§1) To obtain bone-marrow derived macrophages, femurs were removed from 8 week old mice and flushed with 5 mL of sterile PBS containing 5% FBS. The cell suspension was centrifuged, treated with red blood cell lysis buffer, washed, and then plated onto sterile petri dishes in DMEM containing 10% L929 media, 10% FBS and 1% penicillin/streptomycin/glutamine (PSQ). Media was replenished every 2 to 3 days and differentiated cells were used at day 6 post-harvest. Resident peritoneal macrophages were obtained by flushing the peritoneal cavity of mice with 10 mL of cold PBS containing 5% FBS. Collected cells were spun down, resuspended in X-VIVO 10 (Lonza) and plated at a concentration of 3×10^5 cells per well in a 24 well plate for IGF-1 secretion assays, and 5×10^5 per well in a 24 well plate for engulfment assays. Floating cells were washed the next day and remaining peritoneal macrophages were used 2 days after isolation. Alveolar macrophages were isolated by flushing the lungs with 1 mL of cold PBS instilled intratracheally (five flushes). Collected cells were centrifuged, resuspended in F12K media containing 10% FBS and 1% PSQ, and seeded at 1×10^5 cells per well in a 48-well plate. All floating cells were washed away the next day and remaining cells were used in assays 2 days after isolation.

[5] = system: BEAS-2B cells; assay: Uptake of alveolar macrophage derived microvesicles by BEAS-2B cells; type: cell-based, human; conditions: IGF-1 100 ng/mL
Procedure: MH-S, mouse alveolar macrophages, or primary mouse alveolar macrophages were seeded. After adherence, the media was replaced with 0.22 μm filtered media to remove any contaminating microvesicles. After an overnight incubation, the supernatant was harvested and spun at 5000×g to remove cell debris and apoptotic bodies. The pellet was discarded and the resulting supernatant was filtered through 0.8 μm filter and spun again at 17,000×g. The pelleted microvesicles were then washed with HBSS and then spun again at 17,000×g. For engulfment assays, microvesicles were stained with TAMRA for 20 minutes and then added to BEAS-2B cells for 90 minutes. For flow cytometry, purified particles were stained with CD11c, Siglec F, and Annexin V (BD Biosciences, Cat. No. 550475) and processed on Imagestream™ imaging flow cytometer (Amnis). Microvesicle size distribution was characterized using qNano (IZON Science) with a NP400 membrane and at least 500 particles were counted. Microvesicles were prepared for cryo-electron microscopy using standard methods and imaged on an FEI TF20.

[6] = system: bone marrow derived macrophages; assay: Apoptotic cell engulfment by bone marrow derived macrophages; type: cell-based, mouse; conditions: even with supra-physiological concentrations of IGF-1
Procedure: as §1

[7] = system: resident peritoneal macrophages; assay: Apoptotic cell engulfment by resident peritoneal macrophages; type: cell-based, mouse; conditions: even with supra-physiological concentrations of IGF-1
Procedure: as §1

[8] = system: LR73 cells; conditions: liposomes of 150-200 nm; IGF-1 50 ng/mL, EGF or VEGF 100 ng/mL each
Procedure: LR73, SVEC-40, BEAS-2B, and 16HBE14o-cells were seeded in a 24 well plate. Thymocytes were isolated from 4-6 week old mice and induced to undergo apoptosis with dexamethasone. Thymocytes or prepared microvesicles were then stained with either CypHer5E (GE Healthcare, PA15401) or TAMRA (Invitrogen, C-1171). LR73 and SVEC-40 cells were incubated with apoptotic thymocytes at a 1:10 phagocyte to target ratio, BEAS-2B at a 1:5 phagocyte to target ratio, and 16HBE14o—at a 1:20 phagocyte to target ratio for 2 hours. Mouse IGF-I (Sigma-Aldrich), human IGF-I (Sigma-Aldrich), human IGF-II (Sigma-Aldrich) were added to the phagocytes at the same time as addition of apoptotic targets. For IGFBP3 studies, IGFBP3 (Sigma-Aldrich) was added to media or supernatant from J774 cells for one hour to allow IGFBP3 to bind to any available IGF-I, then the mix is added to phagocytes along with apoptotic targets. For all pharmacological studies, phagocytes were pre-incubated with the compounds listed below for one hour prior to addition of apoptotic targets: cytochalasin D (Sigma-Aldrich, C8273, 1 μM), Latrunculin A (Tocris, 3973, 150 nM), CK-666 (Tocris, 3950, 25 μM-100 μM), OSI-906 (Selleckchem, S1091, 5 nM-40 nM), NVP-AEW541 (Selleckchem, S1034, 25 nM-100 nM), Rapamycin (Sigma-Aldrich, R0395, […]), MK-2206 2HCl (Selleckchem, S1078, 10 nM-1 U0126-EtOH (Selleckchem, S1102, […]), Wortmannin (Sigma-Aldrich, W1628, 50 nM-200 nM), Y27632 (Calbiochem, 688000, 3.75 μM-15 μM), or GSK269962 (Tocris, 4009, 80 nM-2 μM). […] Targets were then washed off three times with PBS, and the cells were dissociated from the plate with trypsin and the engulfment assessed by flow cytometry.
Liposomes were prepared by dissolving the lipids (phosphatidylserine, dioleoyl phosphatidylcholine, cholesterol and the lipid DiD dye) in chloroform, evaporating chloroform under flow of argon gas in a glass vial, then subjecting the lipid layer to overnight lyophilization to remove traces of organic solvent. Then normal saline was added for hydration, and intense vortexing was preformed to prepare multilamellar vesicles (MIN). Liposomes were repeatedly filtered through a 0.2 um Nuclepore polycarbonate filter to prepare smaller particles. Particle size was verified by dynamic light scattering using Nicomp 370.

For insulin-like growth factor I [IGF-1], the “engulfment of apoptotic cells or liposomes by lung macrophages in vivo” value [1] was “unaffected in their ability to engulf these targets”, the “early signaling in macrophages (IGF-1R and Akt phosphorylation)” value [2] was “initiated early signaling in macrophages” and the “apoptotic thymocyte uptake by SVEC-40 cells” value [3] was “engulfment dampening effect of IGF-1 was also seen”. For the same substance, the “liposome uptake by peritoneal macrophages” value [4] was “comparable liposome uptake as control treated cells”, the “uptake of microvesicles by BEAS-2B airway epithelial cells” value [5] was “enhanced by IGF-1” and the “corpse uptake by bone marrow-derived macrophages” value [6] was “did not affect corpse uptake”. The “corpse uptake by resident peritoneal macrophages” value [7] was “did not affect corpse uptake” and the “uptake of PtdSer containing liposomes by LR73 cells” value [8] was “enhanced the uptake of PtdSer containing liposomes”.
